Data published in patent publication US20150209281A1, “LIPOSOMAL COMPOSITIONS OF EPOXYKETONE-BASED PROTEASOME INHIBITORS” (ONYX THERAPEUTICS, INC., priority 2012, published 2015).
Values after ≈ are worked out from the molar mass of the structure shown. Read-outs that look alike come from different tables or passages of the source.

Test: Aqueous solubility of carfilzomib
Format: physicochemical

solubility (30 °C, simulated gastric fluid, thermodynamic from solid, 0.1M HCl aqueous solution, ~pH 1, read-out: Approximate carfilzomib solubility at pH 1): ~1800 µg/mL (≈ 2500 µM)
solubility (aqueous medium, read-out: aqueous solubility): < 1 µg/mL
Structure (SMILES): CC(C)C[C@H](NC(=O)[C@H](CCc1ccccc1)NC(=O)CN1CCOCC1)C(=O)N[C@@H](Cc1ccccc1)C(=O)N[C@@H](CC(C)C)C(=O)[C@@]1(C)CO1 [carfilzomib]
